Results taken from patent publication US8691811B2, “Quinazolinone linked pyrrolo[2,1-c][1,4]benzodiazepine hybrids as potential anticancer agents and process for the preparation thereof” (Council of Scientific & Industrial Research, priority 2008, dated 2014).

Tests used:
[1] = system: SR; experiment: NCI cytotoxicity (SRB, 48 h), SR; type: cell-based, human; settings: leukemia
Protocol: (§1) The C8-linked quinazolinone-PBD hybrid (5d) has been tested against sixty human tumour cell lines derived from nine cancer types (leukemia, non-small cell lung cancer, colon cancer, CNS cancer, melanoma, ovarian cancer, renal cancer, prostate cancer and breast cancer) as per NCI protocol. For each compound, dose response curves for individual cell lines have been measured at a minimum of five concentrations at 10 fold dilutions. A protocol of 48 h continuous drug exposure has been used, and a sulforhodamine B (SRB) protein assay was used to estimate cell viability or growth. The concentration for 50% cell growth inhibition (GI50), total cell growth inhibition (TGI, 0% growth) and 50% cell death (LC50, […]) compared with the control has been calculated (Table-1). Compound 5d has been evaluated for their in vitro cytotoxicity in sixty cell lines from nine human cancer types of lung (Hop-62, NCI-H226, NCI-H522), leukemia (K-562, SR), colon (HCT-116, HCT-15, HCC-2998), CNS(SF-539), melanoma (SK-MEL-5, UACC-62, M14), ovarian (IGROV1), renal (A498), prostate (PC3) breast (BT-549, MDA-MB-435, HS578T) origin. The results are expressed as percent of cell growth determined relative to that of untreated control cells (Table 2). The representative compound 5d has shown significant cytotoxicity against some cancer cell lines.

[2] = system: NCI/ADR-RES; experiment: NCI cytotoxicity (SRB, 48 h), NCI/ADR-RES; type: cell-based, human; settings: breast
Protocol: as §1

[3] = system: SK-MEL-28; experiment: NCI cytotoxicity (SRB, 48 h), SK-MEL-28; type: cell-based, human; settings: SK-MEL-28, melanoma
Protocol: as §1

[4] = system: CAKI-1; experiment: NCI cytotoxicity (SRB, 48 h), CAKI-1; type: cell-based, human; settings: CAKI-1, renal
Protocol: as §1

[5] = system: SF-539; experiment: NCI cytotoxicity (SRB, 48 h), SF-539; type: cell-based, human; settings: SF-539, CNS
Protocol: as §1

[6] = system: UO-31; experiment: NCI cytotoxicity (SRB, 48 h), UO-31; type: cell-based, human; settings: UO-31, renal
Protocol: as §1

[7] = system: LOX IMVI; experiment: NCI cytotoxicity (SRB, 48 h), LOX IMVI; type: cell-based, human; settings: melanoma
Protocol: as §1

[8] = system: SNB-19; experiment: NCI cytotoxicity (SRB, 48 h), SNB-19; type: cell-based, human; settings: SNB-19, CNS
Protocol: as §1

[9] = system: HOP-92; experiment: NCI cytotoxicity (SRB, 48 h), HOP-92; type: cell-based, human; settings: HOP-92, non-small cell lung
Protocol: as §1

[10] = system: RPMI-8226; experiment: NCI cytotoxicity (SRB, 48 h), RPMI-8226; type: cell-based, human; settings: RPMI-8226, leukemia
Protocol: as §1

[11] = system: HCT-15; experiment: NCI cytotoxicity (SRB, 48 h), HCT-15; type: cell-based, human; settings: HCT-15, colon
Protocol: as §1

[12] = system: PC-3; experiment: NCI cytotoxicity (SRB, 48 h), PC-3; type: cell-based, human; settings: PC-3, prostate
Protocol: as §1

[13] = system: OVCAR-3; experiment: NCI cytotoxicity (SRB, 48 h), OVCAR-3; type: cell-based, human; settings: OVCAR-3, ovarian
Protocol: as §1

[14] = system: TK-10; experiment: NCI cytotoxicity (SRB, 48 h), TK-10; type: cell-based, human; settings: TK-10, renal
Protocol: as §1

[15] = system: A549/ATCC; experiment: NCI cytotoxicity (SRB, 48 h), A549/ATCC; type: cell-based, human; settings: non-small cell lung
Protocol: as §1

[16] = system: Breast cancer cell lines; experiment: NCI cytotoxicity (SRB, 48 h), breast panel; type: cell-based, human; settings: Breast panel average
Protocol: as §1

[17] = system: CNS cancer cell lines; experiment: NCI cytotoxicity (SRB, 48 h), CNS panel; type: cell-based, human; settings: CNS panel average
Protocol: as §1

[18] = system: K-562; experiment: NCI cytotoxicity (SRB, 48 h), K-562; type: cell-based, human; settings: K-562, leukemia
Protocol: as §1

[19] = system: MOLT-4; experiment: NCI cytotoxicity (SRB, 48 h), MOLT-4; type: cell-based, human; settings: MOLT-4, leukemia
Protocol: as §1

[20] = system: Leukemia cell lines; experiment: NCI cytotoxicity (SRB, 48 h), leukemia panel; type: cell-based, human; settings: Leukemia panel average
Protocol: as §1

[21] = system: Prostate cancer cell lines; experiment: NCI cytotoxicity (SRB, 48 h), prostate panel; type: cell-based, human; settings: Prostate panel average
Protocol: as §1

[22] = system: OVCAR-8; experiment: NCI cytotoxicity (SRB, 48 h), OVCAR-8; type: cell-based, human; settings: OVCAR-8, ovarian
Protocol: as §1

[23] = system: SF-268; experiment: NCI cytotoxicity (SRB, 48 h), SF-268; type: cell-based, human; settings: SF-268, CNS
Protocol: as §1

[24] = system: BT-549; experiment: NCI cytotoxicity (SRB, 48 h), BT-549; type: cell-based, human; settings: BT-549, breast
Protocol: as §1

[25] = system: RXF 393; experiment: NCI cytotoxicity (SRB, 48 h), RXF 393; type: cell-based, human; settings: RXF 393, renal
Protocol: as §1

[26] = system: NCI-H23; experiment: NCI cytotoxicity (SRB, 48 h), NCI-H23; type: cell-based, human; settings: NCI-H23, non-small cell lung
Protocol: as §1

[27] = system: OVCAR-4; experiment: NCI cytotoxicity (SRB, 48 h), OVCAR-4; type: cell-based, human; settings: OVCAR-4, ovarian
Protocol: as §1

[28] = system: duplex-form calf thymus DNA (CT-DNA); experiment: Thermal denaturation studies with calf thymus DNA; type: binding; settings: [PBD]:[DNA] molar ratio 1:5, CT-DNA 100 μM, ligand 20 μM, pH 7.00
Protocol: Compounds have been subjected to thermal denaturation studies with duplex-form calf thymus DNA (CT-DNA) using a modification of a reported procedure. Working solutions in aqueous buffer ([…] NaH2PO4/Na2HPO4, 1 mM Na2EDTA, pH 7.00+0.01). containing CT-DNA (100 μm in phosphate) and the PBD (20 μm) have been prepared by addition of concentrated PBD solutions in DMSO to obtain a fixed [PBD]/[DNA] molar ratio of 1:5. The DNA-PBD solutions have been incubated at 37° C. for 0 and 18 hrs prior to analysis. Samples have been monitored at 260 nm using a Beckman DU-800 spectrophotometer fitted with high performance temperature controller, and heated at 1° C. min^−1 in the 40-110° C. range. DNA helix→coil transition temperatures (Tm) have been obtained from the maxima in the d(A260)/dT derivative plots. Drug-induced alterations in DNA melting behavior are given by: ΔTm=Tm(DNA+PBD)−Tm(DNA alone), where the Tm value for the PBD-free CT-DNA is 68.5±0.01.
The DNA-binding for these novel C8-linked quinazolinone-PBD hybrids has been examined by thermal denaturation studies using calf thymus (CT) DNA. […] Data for 5b, 5c, 5d, and 5k, 5l, 5m and DC-81 are included in Table 5 for comparison.

[29] = system: HCT-116; experiment: NCI cytotoxicity (SRB, 48 h), HCT-116; type: cell-based, human; settings: HCT-116, colon
Protocol: as §1

COc1cc2c(cc1OCCCCCOc1ccc(-n3c(C)nc4ccccc4c3=O)cc1)N=C[C@@H]1CCCN1C2=O [5d, 7-methoxy-8-{5-[4-(2-methyl-4-oxo-3,4-dihydro-3-quinazolinyl)phenoxy]pentyloxy-}-(11aS)-1,2,3,11a-tetrahydro-5H-pyrrolo[2,1-c][1,4]benzodiazepine-5-one]
GI50 [1]: 110 nM | GI50 [2]: 1730 nM | GI50 [3]: 200 nM | GI50 [4]: 190 nM | GI50 [5]: 220 nM | GI50 [6]: 360 nM | GI50 [7]: 150 nM | GI50 [8]: 280 nM | GI50 [9]: 350 nM | GI50 [10]: 190 nM | GI50 [11]: 1090 nM | GI50 [12]: 290 nM | GI50 [13]: 200 nM | GI50 [14]: 310 nM | GI50 [15]: 230 nM | Log10 GI50 [16]: −6.66 mol/L | Log10 LC50 [16]: −4.90 | Log10 GI50 [17]: −6.59 mol/L | Log10 LC50 [17]: −4.88 | GI50 [18]: 60 nM | GI50 [19]: 190 nM | Log10 GI50 [20]: −6.85 mol/L | Log10 LC50 [20]: −5.30 | Log10 GI50 [21]: −6.55 mol/L | Log10 LC50 [21]: −5.19 | GI50 [22]: 340 nM | GI50 [23]: 260 nM | GI50 [24]: 110 nM | GI50 [25]: 210 nM | GI50 [26]: 230 nM | GI50 [27]: 370 nM | ΔTm after incubation at 37° C. for 0 h ([28]; 0 h): 1.1 °C | ΔTm after incubation at 37° C. for 18 h ([28]; 18 h): 2.3 °C | GI50 [29]: 150 nM
